Reference: US11738120B1, “Synthesis of taurolidine, purity profiles and polymorphs” (CorMedix Inc., priority 2022, dated 2023)
Like-named read-outs stand apart in the source and are kept apart here.

Key:
[1] = cited from earlier work
[2] = cited from earlier work; for ΔpH @ −20° C.: pH shift during freezing
[3] = Long term stability tests of taurolidine solution with citric acid and sodium citrate; type: physicochemical; settings: citric acid and sodium citrate in combination; compared with taurolidine solution prepared with polyvinylpyrrolidone (PVP)
Excerpt: The composition employed in the practice of the present invention preferably also contains a pharmacologically acceptable carrier solution, such as, water for injection.

[4] = Solubility of taurolidine polymorphs in aqueous citric acid; type: physicochemical; settings: in 26.1 mg/mL aqueous citric acid, at T=25° C.
Description: Taurolidine Polymorphs A and B synthesized according to the Present Synthesis may both be soluble in 26.1 mg/mL aqueous citric acid, at T=25° C.

In the case of `N[C@@H](CCC(=O)O)C(=O)O` [Glutamic acid], the pKa ([1]; second pKa value) is given as 4.1 and the pKa ([1]; third pKa value printed in the cell) is given as 9.5.

For `N[C@@H](Cc1c[nH]cn1)C(=O)O` [Histidine], the “pH @ 25° C.” value [2] is given as 5.4 and the “ΔpH @ −20° C.” value [2] is given as “+0.8”.

In the case of `O=C(O)CC(O)C(=O)O` (stereo not drawn) [Malic acid], the pKa ([1]; second pKa value) is listed as 3.4, 5.1, the “pH @ 25° C.” value [2] is listed as 5.0 and the “ΔpH @ −20° C.” value [2] is listed as −0.3.

In the case of `NC(CO)(CO)CO` [Tromethamine], the “pH @ 25° C.” value [2] is listed as 7.2 and the “ΔpH @ −20° C.” value [2] is listed as “+2.1”.

In the case of `CC(=O)O` [Acetic acid], the “pH @ 25° C.” value [2] is listed as 5.6 and the “ΔpH @ −20° C.” value [2] is listed as “+0.5”.

In the case of `O=S1(=O)CCN(CN2CCS(=O)(=O)NC2)CN1` [taurolidine], the “stability and solubility of taurolidine in solution” value [3] is reported as “increases the stability and solubility”.

In the case of `O=C(O)CC(O)(CC(=O)O)C(=O)O` [Citric acid], the “pH @ 25° C.” value [2] is given as 6.2 and the “ΔpH @ −20° C.” value [2] is given as −0.2.

With `O=S1(=O)CCN(CN2CCS(=O)(=O)NC2)CN1` [Polymorph A, taurolidine] the solubility [4] was “soluble”.
